Data published in patent publication US10815219B2, “2,4-diaminoquinazoline derivatives for inhibiting endoplasmic reticulum (ER) stress” (The Board of Regents of the University of Oklahoma, priority 2017, dated 2020).
Read-outs that look alike come from different tables or passages of the source.

System: INS-1 cells
Experiment: INS-1 cell survival after Tm treatment (CellTiter-Glo, intracellular ATP)
Type: cell-based, rat
Conditions: for Maximum activity: % rescue from Tm (0.1 μg/mL)-induced reduction of cell viability, Tm alone 0%, DMSO 100%
Experimental: A structure-activity-relationship (SAR) study was thus conducted to improve the weak potency of lead compound 5a. Newly synthesized or commercially available compounds were tested for their β-cell-protective activity against ER stress in rat INS-1 β-cells. […] Maximum activity value in the tables is reported as % rescue from Tm (0.1 μg/mL)-induced reduction of cell viability. The values for Tm treatment alone and control (DMSO, without Tm) treatment are designated as 0% and 100%, respectively in all tables. EC50 values (the concentrations that reach half-maximal activity) for INS-1 cell viability were calculated with GraphPad Prism from the data of ten 2-fold serial titration points in all tables. All experiments were performed in triplicate in all tables.
INS-1 cells or βTC6 cells were seeded at 3×10^3 cells/well in a 384-well plate and treated with compounds at the indicated concentrations. After 3 d treatment, the medium was aspirated and 20 μL/well of CellTiter-Glo reagent (Promega, WI, USA) was added for the detection of intracellular ATP levels. Cell viability was measured with an EnVision multilabel plate reader (PerkinElmer, MA, USA).

[1] = INS-1 cell viability, Tm 0.1 μg/mL, 72 h, ten 2-fold serial titration points, Table 2, read-out: EC50
[2] = INS-1 cell viability in presence of Tm, read-out: EC50
[3] = INS-1 cell viability, Tm 0.1 μg/mL, 72 h, ten 2-fold serial titration points, Table 1, read-out: EC50
[4] = INS-1 cell viability, Tm 0.1 μg/mL, 72 h, ten 2-fold serial titration points, Table 3, read-out: EC50

Row | SMILES | Maximum activity (72 h, Table 2) [%] | EC50 [1] [nM] | Maximum activity (72 h, Table 1) [%] | EC50 [3] [nM] | also measured
1 | OCC1CCCCN1c1nc(NCCc2ccccc2Cl)c2ccccc2n1 (racemic) [Compound 6l] | 51.4 | 470 ± 450 | – | – | –
2 | OCC1CCCN1c1nc(NCCc2ccccc2)c2ccccc2n1 (stereo not drawn) [Compound 5a, (1-(4-(phenethylamino)quinazolin-2-yl)pyrrolidin-2-yl)methanol] | – | – | 54.4 | – | EC50 [2]: ~500 nM; EC50 (Rattus norvegicus, INS1, 72 h, INS-1 cell viability, Tm 0.1 μg/mL, 72 h, ten 2-fold serial titration points, Table 1, read-out: EC50): 480 ± 190 nM; EC50 (Rattus norvegicus, INS1, running text, INS-1 cell viability in presence of Tm, read-out: EC50): 480 ± 190 nM
3 | OCC1CCCN1c1nc(NCCc2ccc(F)cc2)c2ccccc2n1 (stereo not drawn) [Compound 5b] | – | – | 56.2 | 2130 ± 410 | –
4 | OCC1CCCN1c1nc(NCCc2ccc(Cl)cc2)c2ccccc2n1 (stereo not drawn) [Compound 5c] | – | – | 57.3 | 510 ± 90 | EC50 [2]: ~500 nM
5 | OCC1CCCN1c1nc(NCCc2ccc(Br)cc2)c2ccccc2n1 (stereo not drawn) [Compound 5d] | – | – | 44.1 | 650 ± 160 | EC50 [2]: ~500 nM
6 | Cc1ccc(CCNc2nc(N3CCCC3CO)nc3ccccc23)cc1 (stereo not drawn) [Compound 5e] | – | – | 34.2 | 660 ± 210 | EC50 [2]: ~500 nM
7 | OCC1CCCN1c1nc(NCCc2cccc(F)c2)c2ccccc2n1 (stereo not drawn) [Compound 5f] | – | – | 51.3 | 1150 ± 190 | –
8 | OCC1CCCN1c1nc(NCCc2cccc(Cl)c2)c2ccccc2n1 (stereo not drawn) [Compound 5g] | – | – | 51.5 | 1050 ± 180 | –
9 | OCC1CCCN1c1nc(NCCc2cccc(Br)c2)c2ccccc2n1 (stereo not drawn) [Compound 5h] | – | – | 53.2 | 780 ± 240 | –
10 | COc1cccc(CCNc2nc(N3CCCC3CO)nc3ccccc23)c1 (stereo not drawn) [Compound 5i] | – | – | 54.9 | 1510 ± 130 | –
11 | OCC1CCCN1c1nc(NCCc2ccccc2F)c2ccccc2n1 (stereo not drawn) [Compound 5j] | – | – | 52.5 | 1700 ± 230 | –
12 | OCC1CCCN1c1nc(NCCc2ccccc2Cl)c2ccccc2n1 (stereo not drawn) [Compound 5k] | – | – | 50.6 | 1440 ± 270 | –
13 | OC[C@@H]1CCCN1c1nc(NCCc2ccccc2Br)c2ccccc2n1 [Compound 5l] | – | – | 39.0 | 1880 ± 320 | –
14 | COc1ccccc1CCNc1nc(N2CCCC2CO)nc2ccccc12 (stereo not drawn) [Compound 5m] | – | – | 56.6 | 3560 ± 150 | –
15 | OCC1CCCCN1c1nc(NCCc2ccccc2)c2ccccc2n1 (stereo not drawn) [Compound 6a] | 55.7 | 360 ± 210 | – | – | –
16 | OCC1CCCCN1c1nc(NCCc2ccc(F)cc2)c2ccccc2n1 (stereo not drawn) [Compound 6b] | 47.5 | 310 ± 260 | – | – | EC50 improvement over 2-(hydroxymethyl)pyrrolidin-1-yl counterpart (6-series versus 5-series counterpart): ~7 fold
17 | OCC1CCCCN1c1nc(NCCc2ccc(Cl)cc2)c2ccccc2n1 (stereo not drawn) [Compound 6c] | 57.6 | 170 ± 50 | – | – | –

Row | SMILES | Maximum activity (72 h, Table 2) [%] | EC50 [1] [nM] | Maximum activity (72 h, Table 1) [%] | EC50 [3] [nM] | also measured
18 | OCC1CCCCN1c1nc(NCCc2ccc(Br)cc2)c2ccccc2n1 (stereo not drawn) [Compound 6d] | 52.8 | 340 ± 90 | – | – | –
19 | Cc1ccc(CCNc2nc(N3CCCCC3CO)nc3ccccc23)cc1 (stereo not drawn) [Compound 6e] | 33.6 | 140 ± 40 | – | – | –
20 | COc1ccc(CCNc2nc(N3CCCCC3CO)nc3ccccc23)cc1 (stereo not drawn) [Compound 6f] | 58.6 | 310 ± 120 | – | – | –
21 | OCC1CCCCN1c1nc(NCCc2cccc(F)c2)c2ccccc2n1 (stereo not drawn) [Compound 6g] | 57.3 | 1880 ± 180 | – | – | –
22 | OCC1CCCCN1c1nc(NCCc2cccc(Cl)c2)c2ccccc2n1 (stereo not drawn) [Compound 6h] | 46.2 | 790 ± 300 | – | – | –
23 | OCC1CCCCN1c1nc(NCCc2cccc(Br)c2)c2ccccc2n1 (stereo not drawn) [Compound 6i] | 51.7 | 770 ± 400 | – | – | –
24 | COc1cccc(CCNc2nc(N3CCCCC3CO)nc3ccccc23)c1 (stereo not drawn) [Compound 6j] | 69.2 | 2590 ± 310 | – | – | EC50 (INS-1 cell viability in presence of Tm): increased
25 | OCC1CCCCN1c1nc(NCCc2ccccc2F)c2ccccc2n1 (stereo not drawn) [Compound 6k] | 60.3 | 1460 ± 460 | – | – | –
26 | OCC1CCCCN1c1nc(NCCc2ccccc2Br)c2ccccc2n1 (stereo not drawn) [Compound 6m] | 44.2 | 1410 ± 310 | – | – | –
27 | COc1ccccc1CCNc1nc(N2CCCCC2CO)nc2ccccc12 (stereo not drawn) [Compound 6n] | 46.9 | 1600 ± 150 | – | – | –
28 | COc1ccc(CNc2nc(N3CCCC3CO)nc3ccccc23)cc1 (stereo not drawn) [Compound 8c] | – | – | – | – | Maximum activity (72 h, Table 3): 57.2%; EC50 [4]: 4050 ± 130 nM
29 | COc1ccc(CNc2nc(N3CCCC3CO)nc3ccccc23)cc1OC (stereo not drawn) [Compound 8d] | – | – | – | – | Maximum activity (72 h, Table 3): 44.9%; EC50 [4]: 1850 ± 390 nM
30 | OCC1CCCCN1c1nc(NCc2ccccc2)c2ccccc2n1 (stereo not drawn) [Compound 9a] | – | – | – | – | Maximum activity (72 h, Table 3): 56.4%; EC50 [4]: 230 ± 70 nM
31 | OCC1CCCCN1c1nc(NCc2ccc(Cl)cc2)c2ccccc2n1 (stereo not drawn) [Compound 9b] | – | – | – | – | Maximum activity (72 h, Table 3): 54.7%; EC50 [4]: 210 ± 80 nM
32 | COc1ccc(CNc2nc(N3CCCCC3CO)nc3ccccc23)cc1OC (stereo not drawn) [Compound 9d] | – | – | – | – | Maximum activity (72 h, Table 3): 69.4%; EC50 [4]: 3640 ± 380 nM
33 | Nc1nc(Sc2cc(-n3cccc3)c(Cl)cc2[N+](=O)[O-])n[nH]1 [RH01687, reference compound] | – | – | – | – | concentration exhibiting the maximum protective activity (INS-1 cells, Tm 0.1 μg/mL, 72 h, based on dose-dependent curves): 30 µM
